Where a name gives a salt, the structure may show the parent alone. Read-outs that look alike come from different tables or passages of the source.
Columns and labels:
[1] = boiling point; Table 2, preferred dielectric compounds; cited from earlier work
[2] = Dielectric strength by ASTM D2477; format: physicochemical; settings: 1 atmosphere pressure, 0.1 inch gap, ambient temperature; ASTM D2477 or from literature
[3] = Breakdown voltage at maximum system pressure; format: physicochemical; settings: for Breakdown voltage at maximum pressure: at maximum pressure: 5 atmospheres (73.5 psia), or lower pressure at which the gas liquefies; for Breakdown voltage compared with air: 1 atmosphere and maximum system pressure
[4] = atmospheric pressure; cited from earlier work
[5] = gas phase; cited from earlier work
[6] = normal state; cited from earlier work

Compound | MY BP [1] | also measured
CC(N)C(=O)O (racemic) [DL-2-aminopropanoic acid] | −50.2 °C | 
FCC(F)(F)F [1,1,1,2-Tetrafluoroethane] | −26.1 °C | 
FC(F)(F)C#CC(F)(F)F [1,1,1,4,4,4-hexafluoro-2-butyne] | −24.6 °C | 
FC(F)C(F)F [1,1,2,2-Tetrafluoroethane] | −23.0 °C | 
O=C(C(=O)C(F)F)C(F)F [1,1,4,4-tetrafluoro-butane-2,3-dione] | −81.0 °C | 
C#CC(F)(F)F [3,3,3-trifluoro-propyne] | −48.0 °C | 
N [Ammonia] | −33.3 °C | 
FCF [Difluoromethane] | −51.7 °C | 
FC(F)OC(F)(F)F [Difluoromethyl trifluoromethyl ether] | −35.3 °C | 
CC [Ethane] | −88.6 °C | 
COC(F)(F)F [Ether, methyl trifluoromethyl] | −24.0 °C | 
CCF [Fluoroethane] | −37.7 °C | 
FC(F)C(F)(F)F [Gas R125, Pentafluoroethane] |  | Dielectric strength [2]: 6.4 kV/0.1 inch gap; Breakdown voltage at maximum pressure [3]: 32 kV/0.1 inch gap
FCC(F)(F)F [Gas R134a, 1,1,1,2-Tetrafluoroethane] |  | Dielectric strength [2]: 6.6 kV/0.1 inch gap; Breakdown voltage at maximum pressure [3]: 33 kV/0.1 inch gap
CC(F)(F)F [Gas R143a, 1,1,1-Trifluoroethane] |  | Dielectric strength [2]: 5.8 kV/0.1 inch gap; Breakdown voltage at maximum pressure [3]: 29 kV/0.1 inch gap
CC(F)F [Gas R152a, 1,1-Difluoroethane] |  | Dielectric strength [2]: 5.9 kV/0.1 inch gap; Breakdown voltage at maximum pressure [3]: 29.5 kV/0.1 inch gap
Cl [HCl, hydrogen chloride] |  | Breakdown voltage compared with air [3]: greater then air
FC(F)(F)C(F)(F)F [Hexafluoroethane] | −78.2 °C | 
Cl [Hydrogen chloride] | −85.0 °C | 
N#N [Nitrogen] | −195.8 °C | 
[N-]=[N+]=O [Nitrous oxide] | −88.5 °C | 
FC(F)(F)C(F)(F)C(F)(F)F [Octafluoropropane] | −36.7 °C | 
FS(F)(F)(F)(F)F [SF6, Sulfur hexafluoride] |  | Dielectric strength [2]: 14.0 kV/0.1 inch gap; Breakdown voltage at maximum pressure [3]: 70 kV/0.1 inch gap; Breakdown voltage compared with air [4]: nearly three times higher than air; Temperature below which it does not decompose [5]: ≥ 500 °C; Toxicity [6]: non-toxic
F[Si](F)(F)F [SiF4, silicon tetrafluoride] |  | Breakdown voltage compared with air [3]: greater then air
FC(F)(F)F [Tetrafluoromethane] | −128.1 °C | 
N#CC(F)(F)F [Trifluoroacetonitrile] | −68.8 °C | 
FC(F)F [Trifluoromethane] | −82.1 °C | 
O=CC(F)(F)F [trifluoroacetaldehyde] | −21.0 °C | 
FC(F)(F)S [trifluoromethane thiol] | −36.7 °C | 

From patent US20100320428A1, “GASEOUS DIELECTRICS WITH LOW GLOBAL WARMING POTENTIALS” (priority 2006, published 2010)
